# From patent US20240299384A1, “METHODS FOR TREATING PULMONARY HYPERTENSION IN PATIENTS WITH LEFT VENTRICULAR ASSIST DEVICE IMPLANTATION” (ACTELION PHARMACEUTICALS LTD, priority 2021, published 2024)
# Key:
# [1] = cited from earlier work
# [2] = tested on: patients with PH post-LVAD implantation; experiment: Phase 2 placebo-controlled study in PH post-LVAD implantation: right heart catheterization hemodynamics (PVR by thermodilution); assay type: in vivo, human
# Procedure: (§1) This is a double-blind, placebo-controlled, multicenter, parallel-group Phase 2 study assessing the efficacy and safety of macitentan in PH post-LVAD implantation. Approximately 57 adult patients with PH post-LVAD implantation were randomized (1:1) to receive either macitentan 10 mg, or matching placebo, once daily orally.
# After implantation of the LVAD, patients meet baseline hemodynamic criteria of PH via RHC during the last measurement prior to the first dose of drug, defined as mPAP≥25 mmHg at rest and PAWP≤18 mmHg and PVR>3 WU. Patients are randomized within 90 days of surgical implantation of LVAD and within 14 days of Baseline RHC.
# • (i) Primary efficacy endpoint: The primary efficacy endpoint is PVR ratio of Week 12 to Baseline. PVR is obtained by the thermodilution method. See, Table 7 for the FAS, Table 8 for the ES, and Table 9 for the PPS.
# An RHC conducted prior to signing the Informed Consent may be accepted as the Baseline RHC. Baseline RHC is performed by the thermodilution method, after LVAD implantation and prior to first dose of treatment (which occurs within 90 days post-surgical implantation of LVAD). Randomization (Visit 2) is within 14 days of Baseline RHC. Patients are excluded if they were treated with ERAs, PDE5 inhibitors, i.v., s.c., or oral prostanoids, or guanylate cyclase stimulators within 7 days prior to Baseline RHC or treatment initiation. Patients are excluded if they were treated with inhaled prostanoids (e.g., iloprost, epoprostenol), nitric oxide or i.v. inotropes or vasopressors within 24 h prior to Baseline RHC or treatment initiation. LVAD pump speed/flow rate may be adjusted during the treatment period and during the Baseline RHC.
# An RHC is repeated at Week 12, or within 7 days of permanent discontinuation of treatment if prior to Week 12. The Week 12 RHC is performed by the thermodilution method, and not within 24 h of treatment with i.v. inotropes or vasopressors.
# The following variables also are measured: pulse rate, PAWP, mRAP, systolic/diastolic/mean PAP, CO, and SVO2 and non-invasive mean, SBP and DBP if available. PVR is calculated. CO measurements, and PVR calculations, during both Baseline and Week 12 RHC is obtained via the thermodilution method. All primary end point calculations is based on thermodilution method-calculated PVR.
# The following hemodynamic variables are calculated: PVR, TPR, and CI.
# The primary efficacy variable is PVR ratio of Week 12 to Baseline. PVR [WU] is calculated as (mPAP-PAWP)/CO.
# The ratio of Week 12 to Baseline PVR is log-transformed (base e) and analyzed using an analysis of covariance (ANCOVA) with a factor for treatment group and a covariate for Baseline log PVR (macitentan vs. placebo). The treatment group difference (on log scale) and its 95% CLs are estimated based on the model. The geometric mean ratio (GMR; macitentan vs. placebo) and its 95% confidence interval are obtained by exponentiation. The null hypothesis is rejected if the entire 95% confidence interval is below one.
# The treatment effect is expressed as (GMR-1)×100%, where a negative value indicates a reduction of PVR in the macitentan group as compared to the placebo group.
# [3] = tested on: patients with PH post-LVAD implantation; experiment: Phase 2 study in PH post-LVAD implantation: change in WHO functional class; assay type: in vivo, human
# Procedure: as §1
# Change from Baseline to Week 12 in WHO FC. See, Table 10.
# WHO FC is summarized by time point and treatment group using frequency tables. Changes from Baseline in WHO FC are dichotomized as worsening (i.e., change >0) versus no change or improvement (i.e., change≤0). Worsening is analyzed using a logistic regression model with covariates for treatment group and WHO FC.
# [4] = 10 mg once daily, Week 12: Baseline, FAS, n 27
# [5] = 10 mg once daily, post-hoc analysis
# [6] = PVR calculated by programming, ES sensitivity analysis, 10 mg once daily, Week 12
# [7] = PVR calculated by programming, PPS sensitivity analysis, 10 mg once daily, Week 12
# [8] = PVR calculated by programming, primary analysis, FAS, 10 mg once daily, Week 12
# [9] = PVR reported by INV, sensitivity analysis, FAS, 10 mg once daily, Week 12
# [10] = FAS, N = 25, baseline to Week 12
smiles,measurement,setting,value
"CCCNS(=O)(=O)Nc1ncnc(OCCOc2ncc(Br)cn2)c1-c1ccc(Br)cc1 [Macitentan, propylsulfamic acid [5-(4-bromo-phenyl)-6-[2-(5-bromo-pyrimidin-2-yloxy)-ethoxy]-pyrimidin-4-yl]-amide]","Flushing/feeling of warmth/redness of face and/or hands, Frequency observed with macitentan 10 mg",[1],Uncommon
same,"Headache, Frequency observed with macitentan 10 mg",[1],Very
same,"Photophobia, Frequency observed with macitentan 10 mg",[1],Not known
same,"Sinusitis/rhinitis/nasal congestion, Frequency observed with macitentan 10 mg",[1],Common
same,"DPG, Least squares mean change from baseline","[2]; 10 mg once daily, Day 84 or EOT, FAS, n 23",−6.0383 mmHg
same,"TPG, Least squares mean change from baseline","[2]; 10 mg once daily, Day 84 or EOT, FAS, n 24",−7.6521 mmHg
same,"Change in CI, Comparison to Placebo, Difference of least squares mean","[2]; 10 mg once daily, FAS",0.1209 L/min/m^2
same,"Change in CO, Comparison to Placebo, Difference of least squares mean","[2]; 10 mg once daily, FAS",0.2064 L/min
same,"Change in DPG, Comparison to Placebo, Difference of least squares mean","[2]; 10 mg once daily, FAS",−2.7136 mmHg
same,"Change in PAWP, Comparison to Placebo, Difference of least squares mean","[2]; 10 mg once daily, FAS",2.3514 mmHg
same,"Change in SvO2, Comparison to Placebo, Difference of least squares mean","[2]; 10 mg once daily, FAS",0.4285%
same,"Change in TPG, Comparison to Placebo, Difference of least squares mean","[2]; 10 mg once daily, FAS",−2.7022 mmHg
same,"Change in TPR, Comparison to Placebo, Difference of least squares mean","[2]; 10 mg once daily, FAS",−0.4422 mmHg min/L
same,"mPAP (end-expiratory mean line), Comparison to Placebo, Difference of least squares mean","[2]; 10 mg once daily, FAS",−0.3052 mmHg
same,"mRAP, Comparison to Placebo, Difference of least squares mean","[2]; 10 mg once daily, FAS",2.1396 mmHg
same,"DPG at Day 84 or EOT, mean (SD)","[2]; 10 mg once daily, FAS, n 23",3.87 (5.619) mmHg
same,"Change in CI at Day 84 or EOT compared to Baseline, Least squares mean","[2]; 10 mg once daily, FAS, n 24",0.1284 L/min/m^2
same,"Change in CO at Day 84 or EOT compared to Baseline, Least squares mean","[2]; 10 mg once daily, FAS, n 24",0.3655 L/min
same,"Change in PAWP at Day 84 or EOT compared to Baseline, Least squares mean","[2]; 10 mg once daily, FAS, n 24",3.4038 mmHg
same,"Change in SvO2 at Day 84 or EOT compared to Baseline, Least squares mean","[2]; 10 mg once daily, FAS, n 24",4.7801%
same,"Change in TPR at Day 84 or EOT compared to Baseline, Least squares mean","[2]; 10 mg once daily, FAS, n 24",−1.4175 mmHg min/L
same,"PVR at Week 12/EOT, Mean (std)","[2]; 10 mg once daily, FAS, n 24",2.555 (1.0607) WU
same,"PVR at Week 12/EOT, Median","[2]; 10 mg once daily, FAS, n 24",2.644 WU
same,"TPG at Day 84 or EOT, mean (SD)","[2]; 10 mg once daily, FAS, n 24",12.13 (4.902) mmHg
same,"mPAP (end-expiratory mean line), change from baseline, Least squares mean","[2]; 10 mg once daily, FAS, n 24",−4.2251 mmHg
same,"mRAP, change from baseline, Least squares mean","[2]; 10 mg once daily, FAS, n 24",0.6222 mmHg
same,"Change in mPAP at Day 84 or EOT compared to Baseline, Least squares mean","[2]; 10 mg once daily, FAS, n 24, second mPAP section of Table 11",−4.8854 mmHg
same,"Change in TPG, Comparison to Placebo, Difference of least squares mean","[2]; 10 mg once daily, FAS, listed as macitentan",−2.7 mmHg
same,"Change in mPAP, Comparison to Placebo, Difference of least squares mean","[2]; 10 mg once daily, FAS, second mPAP section of Table 11",−1.3035 mmHg
same,reduction in PVR for macitentan vs placebo,"[2]; 10 mg once daily, Week 12",26%
same,"PVR Ratio to Baseline, Mean (std)",[2]; [4],0.585 (0.2280)
same,"PVR Ratio to Baseline, Median",[2]; [4],0.573
same,"patients with postbaseline PVR<3 WU, number",[2]; [5],16
same,"patients with postbaseline PVR<3 WU, percent",[2]; [5],66.7%
same,PVR (Geometric mean ratio − 1) × 100%,[2]; [6],−26.3%
same,"PVR Geometric Mean Ratio, comparison to placebo",[2]; [6],0.7371
same,PVR (Geometric mean ratio − 1) × 100%,[2]; [7],−37.6%
same,"PVR Geometric Mean Ratio, comparison to placebo",[2]; [7],0.6236
same,PVR (Geometric mean ratio − 1) × 100%,[2]; [8],−26.1%
same,"PVR Geometric Mean Ratio, comparison to placebo",[2]; [8],0.7393
same,"PVR Geometric Mean Ratio, comparison to placebo","[2]; PVR calculated by programming, primary analysis, FAS, 10 mg once daily, Week 12, listed as macitentan",0.74
same,PVR (Geometric mean ratio − 1) × 100%,[2]; [9],−26.1%
same,"PVR Geometric Mean Ratio, comparison to placebo",[2]; [9],0.7386
same,effect on PVR in words,[2]; early post-LVAD population,significantly reduced PVR
same,LV filling in words,[2]; from PAWP and CO data,improved LV filling
same,proportion with postbaseline PVR<3 WU,"[2]; patients with baseline PVR<4 WU, n=10",90.0%
same,proportion with postbaseline PVR<3 WU,"[2]; patients with baseline PVR>4 WU, n=14",50.0%
same,"WHO FC Improvement (change < 0), number of patients",[3]; [10],10
same,"WHO FC Improvement (change < 0), percent of patients",[3]; [10],40.0%
same,"WHO FC No change (change = 0), number of patients",[3]; [10],13
same,"WHO FC No change (change = 0), percent of patients",[3]; [10],52.0%
same,"WHO FC Worsening (change > 0), number of patients",[3]; [10],2
same,"WHO FC Worsening (change > 0), percent of patients",[3]; [10],8.0%
same,"Change in WHO FC, Odds Ratio Macitentan relative to Placebo (95% Confidence Interval)","[3]; ordered logistic regression adjusting for baseline, higher OR = better change","1.333 (0.417, 4.255)"
